Results as given in patent US9139609B2, “C-4″ position substituted macrolide derivative” (priority 2011, dated 2015).
In brackets after ≈: the same amount, converted by molar mass.

Assays:
Format in all cases: cell-based
[1] = system: Streptococcus pyogenes M808; assay: In vitro antibacterial activity, microbroth dilution method (CLSI method), test bacterium D (erythromycin resistant); conditions: read-out: MIC (minimum inhibitory concentration), test bacterium D
Protocol: (§1) In vitro antibacterial activities of the compounds of the present invention against various test bacteria were measured according to the microbroth dilution method (CLSI method). Among them, the bacteria C, D and E are erythromycin resistant bacteria. The MIC values (minimum inhibitory concentration, μg/ml) for the test bacteria A and B are exemplified in Table 22.

[2] = system: Streptococcus pneumoniae ATCC700904; assay: In vitro antibacterial activity, microbroth dilution method (CLSI method), test bacterium C (erythromycin resistant); conditions: read-out: MIC (minimum inhibitory concentration), test bacterium C
Protocol: as §1

[3] = system: Mycoplasma pneumoniae MSC04933; assay: In vitro antibacterial activity, microbroth dilution method (CLSI method), test bacterium E (erythromycin resistant); conditions: read-out: MIC (minimum inhibitory concentration), test bacterium E
Protocol: as §1

[4] = system: Haemophilus infuenzae ATCC43095; assay: In vitro antibacterial activity, microbroth dilution method (CLSI method), test bacterium A; conditions: read-out: MIC (minimum inhibitory concentration), test bacterium A
Protocol: as §1

[5] = system: Streptococcus pneumoniae ATCC49619; assay: In vitro antibacterial activity, microbroth dilution method (CLSI method), test bacterium B; conditions: read-out: MIC (minimum inhibitory concentration), test bacterium B
Protocol: as §1

MIC [1]	MIC [2]	MIC [3]	MIC [4]	MIC [5]	SMILES
≤ 2 µg/mL	0.12 to 0.25 µg/mL (≈ 0.114 to 0.238 µM)	≤ 0.25 µg/mL	–	–	CC[C@H]1OC(=O)[C@H](C)[C@@H](O[C@H]2C[C@@](C)(OC)[C@@](O)(CN(C)CCN(C)C(C)(C)c3ccccc3OC)[C@H](C)O2)[C@H](C)[C@@H](O[C@@H]2O[C@H](C)C[C@H](N(C)C)[C@H]2O)[C@@](C)(OC)C[C@@H](C)[C@@H]2NCCN3C(=O)O[C@@]1(C)[C@H]3[C@@H]2C [Example 340]
≥ 16 µg/mL	0.12 to 0.25 µg/mL (≈ 0.131 to 0.273 µM)	0.5 to 1 µg/mL (≈ 0.546 to 1.09 µM)	–	–	CC[C@H]1OC(=O)[C@H](C)[C@@H](O[C@H]2C[C@@](C)(OC)[C@@](O)(CN(C)CCN(CC)CC)[C@H](C)O2)[C@H](C)[C@@H](O[C@@H]2O[C@H](C)C[C@H](N(C)C)[C@H]2O)[C@@](C)(OC)C[C@@H](C)C(=O)[C@H](C)[C@H]2NC(=O)O[C@@]21C [Example 299]
≤ 2 µg/mL	0.12 to 0.25 µg/mL (≈ 0.113 to 0.235 µM)	≤ 0.25 µg/mL	–	–	CC[C@H]1OC(=O)[C@H](C)[C@@H](O[C@H]2C[C@@](C)(OC)[C@@](O)(CN(C)CCN(C(C)C)C(C)C)[C@H](C)O2)[C@H](C)[C@@H](O[C@@H]2O[C@H](C)C[C@H](N(C)C)[C@H]2O)[C@@](C)(OC)C[C@@H](C)C(=O)[C@H](C)[C@H]2N(CCNS(C)(=O)=O)C(=O)O[C@]12C [Example 404]
4 to 8 µg/mL (≈ 3.8 to 7.61 µM)	0.12 to 0.25 µg/mL (≈ 0.114 to 0.238 µM)	≤ 0.25 µg/mL	–	–	CC[C@H]1OC(=O)[C@H](C)[C@@H](O[C@H]2C[C@@](C)(OC)[C@@](O)(CN(C)CCN(CC)CC)[C@H](C)O2)[C@H](C)[C@@H](O[C@@H]2O[C@H](C)C[C@H](N(C)C)[C@H]2O)[C@@](C)(OC)C[C@@H](C)C(=NO)[C@H](C)[C@H]2N(CCNS(C)(=O)=O)C(=O)O[C@]12C [Example 334]
–	–	–	4 µg/mL (≈ 3.76 µM)	0.03 µg/mL (≈ 0.0282 µM)	CC[C@H]1OC(=O)[C@H](C)[C@@H](O[C@H]2C[C@@](C)(OC)[C@@](O)(CN(C)CCN(C(C)C)C(C)C)[C@H](C)O2)[C@H](C)[C@@H](O[C@@H]2O[C@H](C)C[C@H](N(C)C)[C@H]2O)[C@@](C)(OC)C[C@@H](C)C(=O)[C@H](C)[C@H]2N(CCNS(C)(=O)=O)C(=O)O[C@]12C [Example404]
–	–	–	8 µg/mL (≈ 8.61 µM)	0.06 µg/mL (≈ 0.0646 µM)	CC[C@H]1OC(=O)[C@H](C)[C@@H](O[C@H]2C[C@@](C)(OC)[C@@](O)(CN(C)CCN(CC)C(C)=O)[C@H](C)O2)[C@H](C)[C@@H](O[C@@H]2O[C@H](C)C[C@H](N(C)C)[C@H]2O)[C@@](C)(OC)C[C@@H](C)C(=O)[C@H](C)[C@H]2NC(=O)O[C@@]21C [Example263]
–	–	–	8 µg/mL (≈ 7.65 µM)	0.06 µg/mL (≈ 0.0573 µM)	CC[C@H]1OC(=O)[C@H](C)[C@@H](O[C@H]2C[C@@](C)(OC)[C@@](O)(CN(C)CCN(C)C(C)(C)c3ccccc3OC)[C@H](C)O2)[C@H](C)[C@@H](O[C@@H]2O[C@H](C)C[C@H](N(C)C)[C@H]2O)[C@@](C)(OC)C[C@@H](C)C2=NCCN3C(=O)O[C@@]1(C)[C@H]3[C@H]2C [Example338]
–	–	–	16 µg/mL (≈ 14.8 µM)	0.03 µg/mL (≈ 0.0277 µM)	CC[C@H]1OC(=O)[C@H](C)[C@@H](O[C@H]2C[C@@](C)(OC)[C@@](O)(CN(C)CCN(C)C)[C@H](C)O2)[C@H](C)[C@@H](O[C@@H]2O[C@H](C)C[C@H](N(C)C)[C@H]2O)[C@@](C)(OC(=O)NC/C=C/c2ccc3ncccc3c2)C[C@@H](C)C(=O)[C@H](C)[C@H]2NC(=O)O[C@@]21C [Example348]
–	–	–	4 µg/mL (≈ 3.76 µM)	0.03 µg/mL (≈ 0.0282 µM)	CC[C@H]1OC(=O)[C@H](C)[C@@H](O[C@H]2C[C@@](C)(OC)[C@@](O)(CN(C)CCN(C(C)C)C(C)C)[C@H](C)O2)[C@H](C)[C@@H](O[C@@H]2O[C@H](C)C[C@H](N(C)C)[C@H]2O)[C@@](C)(OC)C[C@@H](C)C(=O)[C@H](C)[C@H]2N(CCS(=O)(=O)NC)C(=O)O[C@]12C [Example451]
–	–	–	8 µg/mL (≈ 7.65 µM)	0.06 µg/mL (≈ 0.0574 µM)	CC[C@H]1OC(=O)[C@H](C)[C@@H](O[C@H]2C[C@@](C)(OC)[C@@](O)(CN(C)CCN(C)C(C)(C)c3ccccc3OC)[C@H](C)O2)[C@H](C)[C@@H](O[C@@H]2O[C@H](C)C[C@H](N(C)C)[C@H]2O)[C@@](C)(OC)C[C@@H](C)C(=O)[C@H](C)[C@H]2C(C#N)C(=O)O[C@@]21C (stereo partly shown) [Example363]
–	–	–	4 µg/mL (≈ 4.37 µM)	0.03 µg/mL (≈ 0.0328 µM)	CC[C@H]1OC(=O)[C@H](C)[C@@H](O[C@H]2C[C@@](C)(OC)[C@@](O)(CN(C)CCN(CC)CC)[C@H](C)O2)[C@H](C)[C@@H](O[C@@H]2O[C@H](C)C[C@H](N(C)C)[C@H]2O)[C@@](C)(OC)C[C@@H](C)C(=O)[C@H](C)[C@H]2NC(=O)O[C@@]21C [Example299]
–	–	–	8 µg/mL (≈ 8.46 µM)	0.06 µg/mL (≈ 0.0635 µM)	CC[C@H]1OC(=O)[C@H](C)[C@@H](O[C@H]2C[C@@](C)(OC)[C@@](O)(CN(C)CCN(CC)C(=O)OC)[C@H](C)O2)[C@H](C)[C@@H](O[C@@H]2O[C@H](C)C[C@H](N(C)C)[C@H]2O)[C@@](C)(OC)C[C@@H](C)C(=O)[C@H](C)[C@H]2NC(=O)O[C@@]21C [Example264]
